Experimental data reported in PMC5854746 (Cancer Chemotherapy and Pharmacology, 2018).
Values joined by “and” are separate entries in the source; they are usually repeats but may differ in a detail not shown here. Equal values may be shown once. “Also recorded” adds a separate entry of the source. Read-outs that look alike come from different tables or passages of the source.

How the values were obtained:
[1] = oral; 9 (ref 1, 11); cited from earlier work
[2] = system: plasma proteins, mainly albumin and α-1 acid glycoprotein; settings: cited from earlier work
[3] = clinical; settings: human, plasma; for clearance: Cltot; for half-life: T 1/2el; for Vd: V d; for AUC(0-t): 100 mg p.o.
[4] = Optimized value, updated based on literature data ref 1, 32; cited from earlier work
[5] = cited from earlier work
[6] = Day 3, observed, 100 mg p.o. q.d., n=26
[7] = Day 6 (steady state), observed, 100 mg p.o. q.d., n=26
[8] = co-administered ARAs, study population
[9] = oral, mean ± SD, Day 1, observed, n=26, calculated with a bioavailability of 60%
[10] = oral, min–max, Day 1, observed, n=26
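Throughout, for C last (trough at 24 h), mean ± SD: plasma pharmacokinetics in a phase 1b study of patients with locally advanced or metastatic pancreatic adenocarcinoma.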
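Throughout, for C peak, mean ± SD: plasma pharmacokinetics in a phase 1b study of patients with locally advanced or metastatic pancreatic adenocarcinoma.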
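Throughout, for C trough, mean ± SD: plasma pharmacokinetics in a phase 1b study of patients with locally advanced or metastatic pancreatic adenocarcinoma.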
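Throughout, for T max, median: plasma pharmacokinetics in a phase 1b study of patients with locally advanced or metastatic pancreatic adenocarcinoma.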

In the case of `C#Cc1cccc(Nc2ncnc3cc(OCCOC)c(OCCOC)cc23)c1` [erlotinib], the “C peak, mean ± SD” value (Day 1, observed, 100 mg erlotinib p.o. q.d., patients n=26, arithmetic mean) is reported as 0.84 µg/mL and 0.84 ± 0.54 µg/mL, the “C last (trough at 24 h), mean ± SD” value (Day 1, observed, 100 mg p.o. q.d., n=26) is reported as 330 ± 290 ng/mL and the “T max, median” value (Day 1, observed, 100 mg p.o., n=26) is reported as 2.00 h. The “C peak, mean ± SD” value [6] was 1.04 ± 0.62 µg/mL, the “C trough, mean ± SD” value [6] was 450 ± 370 ng/mL and the “C peak, mean ± SD” value [7] was 1.38 µg/mL and 1.38 ± 0.66 µg/mL. For the same compound, the “C trough, mean ± SD” value [7] was 720 ng/mL and 720 ± 530 ng/mL, the “Mean trough concentration ± SD” value (Pat.3, weeks 1–50, N=50, 100 mg q.d.) was 0.89 ± 0.68 µg/mL and the “Mean trough concentration ± SD” value (Pat.4, weeks 1–8, N=7, 100 mg q.d.) was 0.66 ± 0.27 µg/mL. For the same compound, the “Mean trough concentration ± SD” value (Pat.5, co-medication of acid reducing agents, weeks 1–4, N=4, 100 mg q.d.) was 0.37 ± 0.09 µg/mL, the “Mean trough concentration ± SD” value (Pat.6, weeks 1–8, N=8, 100 mg q.d.) was 1.78 ± 0.74 µg/mL and the “Mean trough concentration ± SD” value (Pat.7, weeks 1–9, N=9, 100 mg q.d.) was 1.20 ± 0.51 µg/mL. For the same compound, the “Reduction of AUC0–24” value [8] was 52%, the “Reduction of Cmax” value [8] was 56% and the “Patients with concentrations below the activity threshold of 0.5 µg/ml” value (during the first week) was 7%. The “Patients that never reached the threshold of 0.5 µg/ml” value (first week of erlotinib therapy) was 2 of the 26 patients, the “Patients with Ctrough values below the activity threshold” value (long-term analysis, all received ARAs concomitantly) was 5 of the 10 patients and the “Accumulation of erlotinib in plasma” value (long-term monitoring up to 50 weeks, 100 mg q.d.) was “did not show any significant accumulation; also recorded: did not lead to drug accumulation”. For the same compound, the “Patients that did not reach the threshold of 0.5 µg/ml” value (within 24 h after the first administration) was 10 of the 26 patients, the “Bioavailability (estimated)” value [1] was 60% and the “Bound to plasma proteins” value [2] was “approximately 95%”. It also gave a clearance [3, 9] of 91.8 mL/min, a clearance [3, 10] of 7.83 to 502 mL/min and a concentration at 24 h ([3]; oral, Mean erlotinib trough concentrations calculated for each patient, range, long-term study, 10 patients, 100 mg q.d.) of 60 to 1780 ng/mL. For the same compound, the concentration at 24 h ([3]; oral, Mean trough concentration ± SD, Pat.1, weeks 1–15, N=10, 100 mg erlotinib q.d.) was 1670 ± 440 ng/mL, the concentration at 24 h ([3]; oral, Mean trough concentration ± SD, Pat.10, co-medication of acid reducing agents, weeks 1–11, N=11, 100 mg q.d.) was 160 ± 60 ng/mL and the concentration at 24 h ([3]; oral, Mean trough concentration ± SD, Pat.2, co-medication of acid reducing agents, weeks 1–9, N=9, 100 mg q.d.) was 160 ± 40 ng/mL. The concentration at 24 h ([3]; oral, Mean trough concentration ± SD, Pat.8, co-medication of acid reducing agents, weeks 1–16, N=16, 100 mg q.d.) was 270 ± 380 ng/mL, the concentration at 24 h ([3]; oral, Mean trough concentration ± SD, Pat.9, co-medication of acid reducing agents, weeks 1–50, N=47, 100 mg q.d.) was 60 ± 40 ng/mL and the half-life ([3]; oral, mean ± SD, Day 1, observed, n=26) was 18.7 ± 13.1 h. It also gave a half-life [3, 10] of 4.1 to 59 h, a concentration at 24 h ([3]; oral, Trough concentration min–max, Pat.1, weeks 1–15, N=10, 100 mg erlotinib q.d.) of 770 to 2200 ng/mL and a concentration at 24 h ([3]; oral, Trough concentration min–max, Pat.10, co-medication of acid reducing agents, weeks 1–11, N=11, 100 mg q.d.) of 70 to 310 ng/mL. For the same compound, the concentration at 24 h ([3]; oral, Trough concentration min–max, Pat.8, co-medication of acid reducing agents, weeks 1–16, N=16, 100 mg q.d.) was 20 to 1310 ng/mL, the concentration at 24 h ([3]; oral, Trough concentration min–max, Pat.9, co-medication of acid reducing agents, weeks 1–50, N=47, 100 mg q.d.) was 10 to 160 ng/mL and the concentration at 24 h ([3]; oral, Trough plasma concentrations, range, long-term assessment (up to 50 weeks), 100 mg q.d., 10 patients) was 10 to 2400 ng/mL. It also gave a Vd [3, 9] of 97.9 ± 61.7 L, a Vd [3, 10] of 18 to 268 L and a Tmax ([3]; po, 100 mg) of 1 to 8 h. For the same compound, the AUC(0-t) ([3]; po, 100 mg, AUC0–24, mean ± SD, Day 1, observed, n=26) was 12500 ± 9380 ng·h/mL, the AUC(0-t) ([3]; po, 100 mg, AUC0–24, min–max, Day 1, observed, n=26) was 1230 to 36400 ng·h/mL and the concentration at 24 h ([3]; po, C last (trough at 24 h), mean ± SD, Day 1, observed, 100 mg p.o. q.d., n=26) was 330 ng/mL. The concentration at 24 h ([3]; po, C last (trough at 24 h), min–max, Day 1, observed, 100 mg p.o. q.d., n=26) was 40 to 1220 ng/mL, the “Basic pKa” value [4] was 5.4 and the Intrinsic solubility [4] was 8.9 µg/mL. For the same compound, the Solubility in water ([5]; free base) was “only very slightly soluble in water”, the “Biopharmaceutics Classification System (BCS) class” value ([5]; low solubility, high permeability) was “class II” and the pKa ([5]; weak base, limited solubility at pH above it) was 5.4.
